From US20070134261A1, “Effectors of innate immunity” (priority 2001, published 2007)
Values after ≈ are worked out from the molar mass of the structure shown. Read-outs that look alike come from different tables or passages of the source. Residues, ends and D or L forms follow the SMILES beside them. No end group written: not given here.

Tests used:
[1] = assay type: cell-based
[2] = test system: human bronchial epithelial cells (HBE); experiment: LDH release assay (Cytotoxicity Detection Kit); assay type: cell-based; settings: 24 hours; for LDH Release (OD490 nm): 100 μg/ml, no peptide control 1.0 ± 0.05; for toxicity / membrane damage: as measured by both assays (LDH, WST-1), HBE cells
Description: (§1) The potential toxicity of the peptides was measured in two ways. First, the Cytotoxicity Detection Kit (Roche) (Lactate dehydrogenase-LDH) Assay was used. It is a colorimetric assay for the quantification of cell death and cell lysis, based on the measurement of LDH activity released from the cytosol of damaged cells into the supernatant. LDH is a stable cytoplasmic enzyme present in all cells and it is released into the cell culture supernatant upon damage of the plasma membrane. An increase in the amount of dead or plasma membrane-damaged cells results in an increase of the LDH enzyme activity in the culture supernatant as measured with an ELISA plate reader, OD490 nm (the amount of color formed in the assay is proportional to the number of lysed cells). In this assay, human bronchial epithelial cells (I6HBEo14, HBE) cells were incubated with 100 μg of peptide for 24 hours, the supernatant removed and tested for LDH. The other assay used to measure toxicity of the cationic peptides was the WST-1 assay (Roche). This assay is a colorimetric assay for the quantification of cell proliferation and cell viability, based on the cleavage of the tetrazolium salt WST-1 by mitochondrial dehydrogenases in viable cells (a non-radioactive alternative to the [^3H]-thymidine incorporation assay). In this assay, HBE cells were incubated with 100 μg of peptide for 24 hours, and then 10 μl/well Cell Proliferation Reagent WST-1 was added. The cells are incubated with the reagent and the plate is then measured with an ELISA plate reader, OD490 nm.

[3] = test system: HBE cells; experiment: WST-1 assay (cell viability); assay type: cell-based, human
Description: as §1

[4] = test system: A549 epithelial cells; experiment: Human Operon arrays (PRHU04-S1) of A549 cells treated with peptide alone (Tables 31-37, 53); settings: peptide 50 μg/ml, 4 h, A549 cells; for X58467 cytochrome P450, expression Ratio ID#:ctrl: Table 36
[5] = Citobacter rhodensis, overnight, 96-well plate
[6] = Enterohaemorrhagic E. coli, overnight, 96-well plate
[7] = Escherichia coli, overnight, 96-well plate
[8] = Pseudomonas aeruginosa, overnight, 96-well plate
[9] = Salmonella enteritidis ssp. typhimurium, overnight, 96-well plate
[10] = Staphylococcus aureus, overnight, 96-well plate

Row | Compound | MIC, C. rhod. ([1]; 24 h) [µg/mL] | MIC, E. coli ([1]; 24 h) [µg/mL] | MIC, EHEC ([1]; 24 h) [µg/mL] | MIC, S. typhim. ([1]; 24 h) [µg/mL] | LDH Release (OD490 nm) [2] [OD490 nm] | OD490 nm (WST-1 cell viability) [3] [OD490 nm] | other results
1 | CC[C@H](C)[C@H](NC(=O)CNC(=O)[C@H](CCCNC(=N)N)NC(=O)[C@H](CCSC)NC(=O)[C@H](CO)NC(=O)[C@@H](NC(=O)[C@H](CCCNC(=N)N)NC(=O)[C@H](CCCNC(=N)N)NC(=O)[C@@H](NC(=O)[C@H](CS)NC(=O)[C@H](Cc1c[nH]cn1)NC(=O)[C@@H](N)CCCNC(=N)N)[C@@H](C)CC)C(C)C)C(=O)N[C@H](C(=O)N[C@@H](CCSC)C(=O)N[C@@H](CCCNC(=N)N)C(=O)N[C@@H](CCCNC(=N)N)C(=O)N[C@@H](CS)C(=O)N[C@@H](CCCCN)C(=O)O)[C@@H](C)CC [SEQ ID NO: 38] (H-RHCIRRVSMRGIIMRRCK-OH) | 8 (≈ 3.52 µM) | 0.5 (≈ 0.22 µM) | 4 (≈ 1.76 µM) | 4 (≈ 1.76 µM) | 0.95 ± 0.02 | 1.83 ± 0.03 | MIC, P. aerug. ([1]; 24 h): 64 µg/mL (≈ 28.2 µM); MIC, S. aureus ([1]; 24 h): 32 µg/mL (≈ 14.1 µM)
2 | CC[C@H](C)[C@H](NC(=O)[C@H](CC(C)C)NC(=O)[C@H](C)NC(=O)[C@@H]1CCCN1C(=O)[C@H](CC(C)C)NC(=O)CNC(=O)[C@@H](NC(=O)[C@@H](NC(=O)[C@H](CC(C)C)NC(=O)[C@@H](NC(=O)[C@H](CCCCN)NC(=O)[C@H](CCCCN)NC(=O)[C@H](CC(C)C)NC(=O)[C@H](C)NC(=O)[C@H](CCCCN)NC(=O)[C@H](CCSC)NC(=O)[C@H](CC(C)C)NC(=O)[C@H](CCSC)NC(=O)[C@H](CCCCN)NC(=O)[C@H](CC(C)C)NC(=O)[C@H](Cc1ccccc1)NC(=O)[C@H](CO)NC(=O)[C@H](CCCCN)NC(=O)[C@H](CO)NC(=O)[C@@H](N)CCCCN)C(C)C)[C@@H](C)O)[C@@H](C)O)C(=O)N[C@@H](CO)C(=O)O [SEQ ID NO: 41] | – | – | – | – | 3.3 ± 0.2 | 0.40 ± 0.01 | MIC, C. rhod. [1, 5]: 2 µg/mL (≈ 0.702 µM); MIC, EHEC [1, 6]: 2 µg/mL (≈ 0.702 µM); MIC, E. coli [1, 7]: 4 µg/mL (≈ 1.4 µM); MIC, P. aerug. [1, 8]: 8 µg/mL (≈ 2.81 µM); MIC, S. typhim. [1, 9]: 8 µg/mL (≈ 2.81 µM); MIC, S. aureus [1, 10]: 64 µg/mL (≈ 22.5 µM); toxicity / membrane damage [2]: did induce membrane damage
3 | DLPAKRGSAPGST [ID 12] | – | – | – | – | – | – | ID#:ctrl intensity ratio, M14565 cytochrome P450 [4]: 10.6
4 | Gentamicin | – | – | – | – | – | – | MIC, C. rhod. [1, 5]: 0.25 µg/mL; MIC, EHEC [1, 6]: 0.5 µg/mL; MIC, E. coli [1, 7]: 0.25 µg/mL; MIC, P. aerug. [1, 8]: 0.25 µg/mL; MIC, S. typhim. [1, 9]: 0.25 µg/mL; MIC, S. aureus [1, 10]: 0.25 µg/mL
5 | KCKLFKKMLMLALKKVLTTGLPALKLTK [ID 40] | – | – | – | – | – | – | X58467 cytochrome P450, expression Ratio ID#:ctrl [4]: 15.4
6 | KCKLFKKMLMLALKKVLTTGLPALKLTK [SEQ ID NO: 40] | – | – | – | – | 2.8 ± 0.5 | 0.46 ± 0.06 | MIC, C. rhod. [1, 5]: 4 µg/mL; MIC, EHEC [1, 6]: 2 µg/mL; MIC, E. coli [1, 7]: 4 µg/mL; MIC, P. aerug. [1, 8]: 8 µg/mL; MIC, S. typhim. [1, 9]: 4 µg/mL; MIC, S. aureus [1, 10]: 32 µg/mL; toxicity / membrane damage [2]: did induce membrane damage
7 | KESIKVIIRGMMVRMKK [SEQ ID NO: 35] | 8 | 4 | 4 | 8 | 0.88 ± 0.03 | 1.00 ± 0.08 | MIC, P. aerug. ([1]; 24 h): 64 µg/mL; MIC, S. aureus ([1]; 24 h): 128 µg/mL
8 | KKDAIKKVDIRGMDMRRAR [SEQ ID NO: 28] | 64 | – | 128 | 64 | 0.96 ± 0.06 | 1.69 ± 0.03 | –
9 | KKQMMKRVDVRGISVKRKR [SEQ ID NO: 34] | 64 | 8 | 8 | 32 | 1.02 ± 0.03 | 0.96 ± 0.05 | –
10 | KMKSFAKMLMLALKKVLKVLTTALTLKAGLPS [ID 43] | – | – | – | – | – | – | X58467 cytochrome P450, expression Ratio ID#:ctrl [4]: 7.9
11 | KMKSFAKMLMLALKKVLKVLTTALTLKAGLPS [SEQ ID NO: 43] | 8 | 8 | 4 | 16 | 4.3 ± 0.2 | 0.46 ± 0.10 | MIC, P. aerug. ([1]; 24 h): 16 µg/mL; MIC, S. aureus ([1]; 24 h): 128 µg/mL; toxicity / membrane damage [2]: did induce membrane damage
12 | KNKAFAKMLMKALKKVTTAAKPLTG [ID 44] | – | – | – | – | – | – | X58467 cytochrome P450, expression Ratio ID#:ctrl [4]: 34.4
13 | KNKAFAKMLMKALKKVTTAAKPLTG [SEQ ID NO: 44] | 64 | 8 | 64 | 128 | 0.97 ± 0.03 | 1.49 ± 0.39 | MIC, P. aerug. ([1]; 24 h): 128 µg/mL
14 | KQKLFAKMLMSALKKKTLVTTPLAGK [ID 45] | – | – | – | – | – | – | X58467 cytochrome P450, expression Ratio ID#:ctrl [4]: 3.4
15 | KQKLFAKMLMSALKKKTLVTTPLAGK [SEQ ID NO: 45] | 16 | 8 | 16 | 128 | 0.98 ± 0.04 | 1.54 ± 0.35 | MIC, P. aerug. ([1]; 24 h): 128 µg/mL
16 | KRTAIKKVSRRGMSVKARR [SEQ ID NO: 37] | – | – | – | – | 0.96 ± 0.04 | 1.67 ± 0.02 | –
17 | KSRIVPAIPVSLL [SEQ ID NO: 7] | – | – | – | – | 1.01 ± 0.04 | 1.78 ± 0.10 | –
18 | KTKKFAKMLMMALKKVVSTAKPLAILS [ID 42] | – | – | – | – | – | – | X58467 cytochrome P450, expression Ratio ID#:ctrl [4]: 4.7
